Measurements taken from patent US20050238679A1, “Taurine-containing preparations for improving the skin barrier” (Beiersdorf AG, priority 2004, published 2005).

experiment: interfacial tension towards water as measure of polarity of lipids; format: physicochemical; conditions: lipid/oil component against water; regarded as polar if less than 30 mN/m
Description: Oils and fats differ from one another in their polarity, which is difficult to define. It has already been proposed to adopt the interfacial tension towards water as a measure of the polarity index of an oil or of an oily phase. Then, the lower the interfacial tension between this oily phase and water, the greater the polarity of the oily phase in question. According to the invention, the interfacial tension is regarded as one possible measure of the polarity of a given oil component.
The interfacial tension is the force which acts on an imaginary line one meter in length in the interface between two phases. The physical unit for this interfacial tension is conventionally calculated from the force/length relationship and is usually expressed in mN/m (millinewtons divided by meters). It has a positive sign if it endeavours to reduce the interface. In the converse case, it has a negative sign. For the purposes of the present invention, lipids are regarded as polar if their interfacial tension towards water is less than 30 mN/m.
Nonpolar oils are, for example, those which are chosen from the group of branched and unbranched hydrocarbons and hydrocarbon waxes, in particular Vaseline (petrolatum), paraffin oil, squalane and squalene, polyolefins and hydrogenated polyisobutenes. Among the polyolefins, polydecenes are the preferred substances.

SMILES	interfacial tension towards water
CCCCCCCCCCCCCCCCCC(=O)OCCCCCCCC [CETIOL ® 868, Octyl Stearate]	28.4 mN/m
CCCCCCCCCCCCCCCCCC(=O)OC(C)C [Isopropyl stearate, Isopropyl Stearate]	21.9 mN/m
CCCCCCCCCCCCCC(=O)OCC(CCCCCCCC)CCCCCCCCCC (stereo not shown) [MOD, Octyldodeceyl Myristate]	22.1 mN/m
CCCCCCCCOC(=O)CCCCCCCCCCCCCCC(C)C [PRISORINE ® 2036, Octyl Isostearate]	29.7 mN/m
CCCCCCCCCCCCCCCCCCOC(=O)CCCCCC [TEGOSOFT ® SH, Stearyl Heptanoate]	28.7 mN/m
CCCCCCCC(=O)OCC(COC(=O)CCCCCCC)OC(=O)CCCCCCC [TRIVENT ® OCG, Tricaprylin]	20.2 mN/m

experiment: stability of taurine under customary storage conditions; format: physicochemical; conditions: various pH values (5<pH<7), customary storage conditions (+6° C., −10° C., rocking test)
Description: On account of its solubility in water, it is used in various bases such as O/W creams, W/O creams, PIT emulsions, hydrous sticks, hydrodispersions etc. […] Dry skin has a reduced skin barrier. Taurine brings about an increase in the skin moisturization of cosmetic preparations. Moisturization of dry skin brings about a strengthening of the skin barrier, which means that foreign substances can penetrate less easily through the skin into the deeper skin layers. However, taurine applied to the skin penetrates […] into the lower skin layers.

SMILES	stability
NCCS(=O)(=O)O [Taurine, 2-aminoethanesulphonic acid]	very good stability
